# Assay results from patent US7534778B2, “(20S)-1α-hydroxy-2-methylene-19-nor-bishomopregnacalciferol and its uses” (Wisconsin Alumni Research Foundation, priority 2001, dated 2009).
# Entries after “also recorded” stand apart in the source; their conditions may differ. Read-outs that look alike come from different tables or passages of the source.
# Key:
# [1] = test system: intestinal calcium transport; assay: intestinal calcium transport, everted gut sac method, vitamin D-deficient rats; format: in vivo, rat; conditions: for intestinal calcium transport: everted gut sac, vitamin D-deficient rats
# Protocol: (§1) Calcium mobilization from bone and intestinal calcium absorption in vitamin D-deficient animals. Using vitamin D-deficient rats on a low calcium diet (0.02%), the activities of these compounds in intestine and bone were tested.
# Intestinal calcium transport was evaluated in the same groups of animals using the everted gut sac method (FIG. 5).
# [2] = target: T1, full-length recombinant rat vitamin D receptor (Rattus norvegicus, UniProt P13053); assay: competition with [3H]-1,25(OH)2D3 for binding to vitamin D receptor; conditions: FIG. 2, read-out: Ki, competition with [3H]-1,25(OH)2D3 for VDR binding
# T1 sequence (P13053 1-423): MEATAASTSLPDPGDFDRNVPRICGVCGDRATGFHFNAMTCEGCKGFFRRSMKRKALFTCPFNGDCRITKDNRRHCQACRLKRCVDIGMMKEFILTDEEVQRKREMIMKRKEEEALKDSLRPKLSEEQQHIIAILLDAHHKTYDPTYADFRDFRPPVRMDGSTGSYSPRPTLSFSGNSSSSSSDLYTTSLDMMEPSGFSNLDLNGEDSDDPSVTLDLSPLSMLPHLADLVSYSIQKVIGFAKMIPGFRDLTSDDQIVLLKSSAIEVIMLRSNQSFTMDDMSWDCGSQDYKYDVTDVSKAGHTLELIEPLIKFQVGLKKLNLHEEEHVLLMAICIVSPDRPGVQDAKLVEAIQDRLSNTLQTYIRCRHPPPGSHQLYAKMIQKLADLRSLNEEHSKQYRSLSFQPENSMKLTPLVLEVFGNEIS
# [3] = serum calcium response in vitamin D-sufficient normal female rats; format: in vivo, rat; conditions: for serum calcium (hypercalcemia): normal female rats, 5000 pmol/day for 7 days, oral or intraperitoneal, 4 hours after last dose
# Protocol: Serum calcium response in vitamin D-sufficient animals on a normal calcium diet. […] The doses were administered to two separate groups of animals by either the oral or intraperitoneal route, and serum calcium levels were assessed 4 hours after the last dose.
# [4] = test system: HL-60 cells; assay: HL-60 cell differentiation into monocytes; format: cell-based; conditions: FIG. 3; for EC50: HL-60 cells, read-out: EC50, HL60 differentiation
# Protocol: The differentiation of HL-60 promyelocytic into monocytes was determined as described by Ostrem et al (J. Biol. Chem. 262, 14164-14171, 1987).
# VDR binding and HL60 cell differentiation.
# [5] = test system: calcium mobilization from bone; assay: bone calcium mobilization in vitamin D-deficient rats on low calcium diet; format: in vivo, rat; conditions: for bone calcium mobilization activity (serum calcium levels): low calcium diet (0.02%), overall / all dosages, FIG. 4
# Protocol: as §1
# [6] = test system: porcine intestinal vitamin D receptor; assay: binding to porcine intestinal vitamin D receptor; conditions: FIG. 2
Compound,Ki [2],"calcemic activity from serum calcium ([3]; rats, chronic doses, FIG. 6)",EC50 ([4]; Homo sapiens),"binding to porcine receptor compared to standard 1,25-(OH)2D3 [6]","intestinal calcium transport activity ([1]; overall, dose not stated)",serum calcium (hypercalcemia) [3],EC50 [4],mobilization of bone calcium ([5]; 260 pmol/day for 7 days),intestinal calcium transport ([1]; 260 pmol/day),bone calcium mobilization activity (serum calcium levels) [5],intestinal calcium transport ([1]; 260 or 1300 pmol/day),intestinal calcium transport activity ([1]; doses higher than 1300 pmol/day),mobilization of bone calcium ([5]; 1300 pmol/day (5-fold)),"potency on HL-60 differentiation relative to 1,25(OH)2D3 [4]"
"C[C@H](CCCC(C)(C)O)[C@H]1CC[C@H]2/C(=C/C=C3C[C@@H](O)C[C@H](O)C3)CCC[C@]12C [1,25(OH)2 19-nor-D3, 1α,25-dihydroxy-19-nor-vitamin D3, reference compound]",0.2 nM,–,–,–,devoid of intestinal calcium transport activity,produced frank hypercalcemia,4 nM,did not result in mobilization of bone calcium,–,–,–,–,–,–
"C=C1/C(=C\C=C2/CCC[C@]3(C)[C@@H]([C@H](C)CCCC(C)(C)O)CC[C@@H]23)C[C@@H](O)C[C@@H]1O [1,25(OH)2D3, 1α,25-dihydroxyvitamin D3, reference compound]",–,–,–,–,–,–,5 nM,–,promotes a significant increase,increased serum calcium levels at all dosages,–,–,–,–
"C=C1C(O)CC(=CC=C2CCCC3(C)C2CCC3C(C)C)CC1O (stereo not drawn) [2-MP, 1α-hydroxy-2-methylene-19-nor-homopregnacalciferol]",0.3 nM,–,–,–,–,–,6 nM,did not result in mobilization of bone calcium,–,"little, if any, activity in mobilizing calcium from bone","calcium transport activity equivalent to 1,25(OH)2D3",decreased this activity,without effect,–

# Continued, in another order:
Ki [2],"calcemic activity from serum calcium ([3]; rats, chronic doses, FIG. 6)",EC50 ([4]; Homo sapiens),"binding to porcine receptor compared to standard 1,25-(OH)2D3 [6]",Compound,"intestinal calcium transport activity ([1]; overall, dose not stated)",serum calcium (hypercalcemia) [3],EC50 [4],mobilization of bone calcium ([5]; 260 pmol/day for 7 days),intestinal calcium transport ([1]; 260 pmol/day),bone calcium mobilization activity (serum calcium levels) [5],intestinal calcium transport ([1]; 260 or 1300 pmol/day),intestinal calcium transport activity ([1]; doses higher than 1300 pmol/day),mobilization of bone calcium ([5]; 1300 pmol/day (5-fold)),"potency on HL-60 differentiation relative to 1,25(OH)2D3 [4]"
0.6 nM,very little calcemic activity,7 nM,bound equally well,"C=C1[C@H](O)CC(=C/C=C2\CCC[C@]3(C)[C@@H]([C@@H](C)CC)CC[C@@H]23)C[C@H]1O [2-MbisP, (20S)-1α-hydroxy-2-methylene-19-nor-bishomopregnacalciferol]",very little activity,no increase in serum calcium,–,did not result in mobilization of bone calcium,–,"very little bone calcium mobilization activity; also recorded: little, if any, activity in mobilizing calcium from bone",do not promote intestinal calcium transport,–,without effect,"almost as potent as 1,25(OH)2D3"
0.3 nM,–,–,–,"C=C1[C@H](O)CC(=C/C=C2\CCC[C@]3(C)[C@@H](CC)CC[C@@H]23)C[C@H]1O [2-Mpregna, 1α-hydroxy-2-methylene-19-nor-pregnacalciferol]",–,–,17 nM,did not result in mobilization of bone calcium,–,"little, if any, activity in mobilizing calcium from bone",do not promote intestinal calcium transport,–,without effect,–
